Each structure is given as a SMILES string.

The nature of the experiment: Binding affinity to bacterial 16S RNA ribosomal A site by surface plasmon technique. In general terms: SPR reads the build-up and loss of mass on a sensor chip optically.
Consider `NC[C@H]1O[C@H](O[C@H]2[C@@H](NCCNC(=O)[C@H]3O[C@@H](n4ccc(=O)[nH]c4=O)[C@H](O)[C@@H]3O)[C@@H](O)[C@H](N)C[C@@H]2N)[C@H](N)[C@@H](O)[C@@H]1O`, for which the Kd (usually a measure of binding affinity in units of concentration) is 13 µM.
As for `NC[C@H]1O[C@H](O[C@H]2[C@@H](NCCNC(=O)[C@H]3O[C@@H](n4ccc(N)nc4=O)[C@H](O)[C@@H]3O)[C@@H](O)[C@H](N)C[C@@H]2N)[C@H](N)[C@@H](O)[C@@H]1O`, binding was characterised by a dissociation constant (Kd) of 79 µM.
In turn, `Cc1cn([C@H]2C[C@H](O)[C@@H](C(=O)NCCN[C@H]3[C@@H](O)[C@H](N)C[C@H](N)[C@H]3O[C@H]3O[C@H](CN)[C@@H](O)[C@H](O)[C@H]3N)O2)c(=O)[nH]c1=O` registered a Kd of 9 µM.
Compound `NC[C@H]1O[C@H](O[C@H]2[C@@H](NCCNC(=O)[C@H]3O[C@@H](n4cnc5c(N)ncnc54)[C@H](O)[C@@H]3O)[C@@H](O)[C@H](N)C[C@@H]2N)[C@H](N)[C@@H](O)[C@@H]1O` yielded a Kd of 10 µM. The Kd values of the last two compounds are within 1.5-fold of each other.
`Cc1cn([C@@H]2O[C@H](C(=O)NCCCCCCN[C@H]3[C@@H](O)[C@H](N)C[C@H](N)[C@H]3O[C@H]3O[C@H](CN)[C@@H](O)[C@H](O)[C@H]3N)[C@@H](O)[C@H]2O)c(=O)[nH]c1=O` had a Kd of 38 µM.
Next, `NC[C@H]1O[C@H](O[C@H]2[C@@H](NCCCCCCNC(=O)[C@H]3O[C@@H](n4ccc(N)nc4=O)[C@H](O)[C@@H]3O)[C@@H](O)[C@H](N)C[C@@H]2N)[C@H](N)[C@@H](O)[C@@H]1O`: 104 µM.
As for `Cc1cn([C@H]2C[C@H](O)[C@@H](C(=O)NCCCCCCN[C@H]3[C@@H](O)[C@H](N)C[C@H](N)[C@H]3O[C@H]3O[C@H](CN)[C@@H](O)[C@H](O)[C@H]3N)O2)c(=O)[nH]c1=O`, binding was put at a Kd of 56 µM. This Kd is about 1.9-fold lower than that of the compound before.
`NC[C@H]1O[C@H](O[C@H]2[C@@H](NCCCCCCNC(=O)[C@H]3O[C@@H](n4cnc5c(N)ncnc54)[C@H](O)[C@@H]3O)[C@@H](O)[C@H](N)C[C@@H]2N)[C@H](N)[C@@H](O)[C@@H]1O` had a Kd of 17 µM.
Turning to `Cc1cn([C@H]2C[C@H](O)[C@@H](CSCCO[C@@H]3O[C@H](CO[C@@H]4O[C@H](CN)[C@@H](O)[C@H](O)[C@H]4N)[C@@H](O)[C@H](O)[C@H]3N)O2)c(=O)[nH]c1=O`, the Kd is 370 µM.
Next, `NC[C@H]1O[C@@H](OC[C@H]2O[C@@H](SCCCCCCSC[C@H]3O[C@@H](n4ccc(=O)[nH]c4=O)[C@H](O)[C@@H]3O)[C@H](N)[C@@H](O)[C@@H]2O)[C@H](N)[C@@H](O)[C@@H]1O`: 1100 µM.
Next, `NC[C@H]1O[C@@H](OC[C@H]2O[C@@H](OC[C@H]3O[C@@H](n4ccc(=O)[nH]c4=O)[C@H](O)[C@@H]3O)[C@H](N)[C@@H](O)[C@@H]2O)[C@H](N)[C@@H](O)[C@@H]1O`: 2000 µM.
The result for `Cc1cn([C@H]2C[C@H](O)[C@@H](CO[C@@H]3O[C@H](CO[C@@H]4O[C@H](CN)[C@@H](O)[C@H](O)[C@H]4N)[C@@H](O)[C@H](O)[C@H]3N)O2)c(=O)[nH]c1=O` reads 667 µM; that for `Cc1cn([C@H]2C[C@H](O)[C@@H](CSCCCCCCS[C@@H]3O[C@H](COC4O[C@H](CN)[C@@H](O)[C@H](O)[C@H]4N)[C@@H](O)[C@H](O)[C@H]3O)O2)c(=O)[nH]c1=O` (stereo partly specified), 400 µM.
The compound `NC[C@H]1O[C@@H](OC[C@H]2O[C@@H](OCCSC[C@H]3O[C@@H](n4ccc(N)nc4=O)[C@H](O)[C@@H]3O)[C@H](N)[C@@H](O)[C@@H]2O)[C@H](N)[C@@H](O)[C@@H]1O` came in with a Kd of 667 µM.
Next, `Cc1cn([C@H]2C[C@H](O)[C@@H](CSCCCCCCS[C@@H]3O[C@H](CN)[C@@H](O)[C@H](O)[C@H]3O)O2)c(=O)[nH]c1=O`: 117 µM; `NC[C@H]1O[C@@H](SCCCCCCSC[C@H]2O[C@@H](n3ccc(=O)[nH]c3=O)[C@H](O)[C@@H]2O)[C@H](N)[C@@H](O)[C@@H]1O`: 1250 µM.

The values are drawn from ChEMBL document CHEMBL1158176, “Flexible computational docking studies of new aminoglycosides targeting RNA 16S bacterial ribosome site” (Eur J Med Chem, 2008).
